Where a SMILES comes first, the peptide text is derived from it. Bridges are numbered along the chain shown (N, C = ends).
How the values were obtained:
[1] = Induction of neurite outgrowth in rat CGN cells at 7.3 uM; assay type: functional
Cadherin-2 = target: T1, Cadherin-2 (Homo sapiens, UniProt P19022); test: Antagonist activity at N-cadherin; assay type: functional
T1 sequence (P19022 whole entry): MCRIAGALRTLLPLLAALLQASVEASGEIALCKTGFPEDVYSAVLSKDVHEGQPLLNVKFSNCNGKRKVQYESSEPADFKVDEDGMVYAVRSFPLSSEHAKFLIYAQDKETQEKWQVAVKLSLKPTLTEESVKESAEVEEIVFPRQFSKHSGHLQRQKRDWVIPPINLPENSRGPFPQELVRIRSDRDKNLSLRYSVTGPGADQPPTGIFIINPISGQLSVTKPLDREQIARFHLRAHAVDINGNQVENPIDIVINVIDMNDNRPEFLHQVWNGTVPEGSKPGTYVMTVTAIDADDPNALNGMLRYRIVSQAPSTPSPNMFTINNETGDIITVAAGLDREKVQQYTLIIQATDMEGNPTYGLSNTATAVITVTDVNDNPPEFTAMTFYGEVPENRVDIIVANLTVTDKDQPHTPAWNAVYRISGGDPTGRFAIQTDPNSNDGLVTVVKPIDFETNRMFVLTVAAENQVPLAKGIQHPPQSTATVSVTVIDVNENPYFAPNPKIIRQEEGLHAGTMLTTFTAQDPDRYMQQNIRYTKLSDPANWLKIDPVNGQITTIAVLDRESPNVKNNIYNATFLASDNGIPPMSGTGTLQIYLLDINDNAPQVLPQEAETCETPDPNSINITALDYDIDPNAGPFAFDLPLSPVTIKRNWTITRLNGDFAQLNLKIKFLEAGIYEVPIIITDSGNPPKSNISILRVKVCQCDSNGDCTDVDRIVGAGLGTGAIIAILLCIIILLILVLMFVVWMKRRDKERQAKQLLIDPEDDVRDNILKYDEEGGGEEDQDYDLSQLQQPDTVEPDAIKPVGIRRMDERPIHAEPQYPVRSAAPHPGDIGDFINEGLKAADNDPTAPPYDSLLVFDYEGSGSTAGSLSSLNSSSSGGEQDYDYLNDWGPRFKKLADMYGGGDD

[2] = Inhibition of bacterial DNA polymerase beta association with DNA polymerase delta
[3] = Inhibition of bacterial DNA polymerase beta association with DNA polymerase alpha
[4] = target: D(2) dopamine receptor (Homo sapiens) (UniProt P14416); test: Agonist activity at human dopamine D2 receptor at 10 nM; assay type: functional
D(2) dopamine receptor (Homo sapiens), sequence (P14416 whole entry): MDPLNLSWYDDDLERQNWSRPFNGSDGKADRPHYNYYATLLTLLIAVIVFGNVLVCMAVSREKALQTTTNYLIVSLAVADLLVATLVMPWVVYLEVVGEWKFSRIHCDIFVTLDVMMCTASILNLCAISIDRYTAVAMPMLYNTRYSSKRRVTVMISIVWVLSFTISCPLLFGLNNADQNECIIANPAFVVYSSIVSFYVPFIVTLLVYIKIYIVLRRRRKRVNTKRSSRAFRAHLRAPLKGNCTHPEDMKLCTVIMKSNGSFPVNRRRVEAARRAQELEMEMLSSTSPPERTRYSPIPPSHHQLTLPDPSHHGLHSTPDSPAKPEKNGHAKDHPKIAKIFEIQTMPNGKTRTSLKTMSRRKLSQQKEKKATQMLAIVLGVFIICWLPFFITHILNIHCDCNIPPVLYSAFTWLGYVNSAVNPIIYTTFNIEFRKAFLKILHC

Row | Compound | IC50 [2] | IC50 [3] | other results
1 | CC[C@H](C)[C@@H]1NC(=O)[C@H](CC(=O)O)NC(=O)[C@H](C(C)C)NC(=O)[C@H](C)NC(=O)[C@H](Cc2cnc[nH]2)NC(=O)CNC(=O)[C@H](CC(N)=O)NC(=O)[C@H]([C@@H](C)CC)NC(=O)[C@H](CC(=O)O)NC(=O)[C@H](C(C)C)NC(=O)[C@H](C)NC(=O)[C@H](Cc2cnc[nH]2)NC(=O)[C@@H](NC(C)=O)CSSC[C@@H](C(N)=O)NC1=O (Ac-CHAVDINGHAVDIC-NH2; disulfide 1-14) | – | – | Activity [1]: 70%
2 | CC(=O)N[C@H]1CSSC[C@@H](C(N)=O)NC(=O)[C@H](CC(=O)O)NC(=O)[C@H](C(C)C)NC(=O)[C@H](C)NC(=O)[C@H](Cc2cnc[nH]2)NC1=O (Ac-CHAVDC-NH2; disulfide 1-6) | – | – | IC50 (Cadherin-2): 5 µM
3 | N[C@@H](Cc1ccccc1)C(=O)NC1C(=O)N(CC(=O)O)C[C@H]1CC(=O)O (some centres not stated) | – | – | Activity [4]: 146%

Second part, led by results:

Row | IC50 [2] | IC50 [3] | Compound | other results
4 | 290 µM | 350 µM | CCC/C(=N\OC/C(Cl)=C/c1ccc(Cl)cc1)C1C(=O)CC(C)(C)CC1=O | –
5 | 90 µM | 270 µM | CCC/C(=N\OCc1ccc(-c2ccccc2)cc1)C1C(=O)CC(C)(C2OCC(C)(C)CO2)OC1=O (configuration not stated) | –

Reference: ChEMBL document CHEMBL1687877, “Tripeptide motifs in biology: targets for peptidomimetic design” (J Med Chem, 2011)
